# According to patent US20230145835A1, “Modulators of Alpha-4-beta-7 Integrin and MAdCAM” (48HD Biopharma Inc., priority 2021, published 2023):
# Numbered stars: 1 amine (or outer) side, 2 acyl side, 3 side chain; on linkers, the order of the positions; unused ones are H or OH. Bridge positions count the residues as written; N and C are the ends. Square brackets hold non-standard residues; d marks the D form. Peptide text beside a SMILES is read from it. X3 = O=C(/C=N/OCCCCCCOc1cc(C[*:2])cc(C[*:3])c1)[*:1]; X1 = O=C(C=NOCCCCCCOc1cc(C[*:2])cc(C[*:3])c1)[*:1]; tBuAla = CC(C)(C)C[C@H](N)C(=O)O; Cba = N[C@@H](CC1CCC1)C(=O)O; Nle = CCCC[C@H](N)C(=O)O
# Target: T1, rh-integrin α4β7/LPAM-1 (Homo sapiens, UniProt P13612+P26010)
# T1 sequence (P13612 34-977 limits assumed): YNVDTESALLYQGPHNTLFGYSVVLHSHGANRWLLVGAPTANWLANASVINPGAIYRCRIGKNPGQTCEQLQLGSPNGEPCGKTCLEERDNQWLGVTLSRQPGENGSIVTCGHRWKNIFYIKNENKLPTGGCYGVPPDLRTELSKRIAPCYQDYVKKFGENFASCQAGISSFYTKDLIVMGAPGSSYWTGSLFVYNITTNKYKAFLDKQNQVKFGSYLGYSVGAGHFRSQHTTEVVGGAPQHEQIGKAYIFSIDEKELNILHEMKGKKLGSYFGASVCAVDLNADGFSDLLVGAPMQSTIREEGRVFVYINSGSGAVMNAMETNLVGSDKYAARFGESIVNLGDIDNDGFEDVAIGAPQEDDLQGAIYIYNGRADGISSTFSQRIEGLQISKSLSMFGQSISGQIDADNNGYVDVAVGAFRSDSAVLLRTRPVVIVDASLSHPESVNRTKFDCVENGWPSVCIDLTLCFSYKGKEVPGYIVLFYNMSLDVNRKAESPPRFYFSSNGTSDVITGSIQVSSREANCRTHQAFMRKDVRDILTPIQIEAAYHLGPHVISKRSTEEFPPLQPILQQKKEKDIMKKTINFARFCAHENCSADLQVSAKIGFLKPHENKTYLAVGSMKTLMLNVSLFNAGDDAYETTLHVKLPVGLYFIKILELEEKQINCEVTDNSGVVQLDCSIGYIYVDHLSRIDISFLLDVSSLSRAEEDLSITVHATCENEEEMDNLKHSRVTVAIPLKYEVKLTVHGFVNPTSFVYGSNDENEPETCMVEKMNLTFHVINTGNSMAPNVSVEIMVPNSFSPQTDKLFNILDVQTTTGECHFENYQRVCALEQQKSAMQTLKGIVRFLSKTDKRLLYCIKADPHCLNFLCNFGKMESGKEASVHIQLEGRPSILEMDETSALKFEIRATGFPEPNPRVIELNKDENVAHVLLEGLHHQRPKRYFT
# T1 sequence (P26010 20-723 limits assumed): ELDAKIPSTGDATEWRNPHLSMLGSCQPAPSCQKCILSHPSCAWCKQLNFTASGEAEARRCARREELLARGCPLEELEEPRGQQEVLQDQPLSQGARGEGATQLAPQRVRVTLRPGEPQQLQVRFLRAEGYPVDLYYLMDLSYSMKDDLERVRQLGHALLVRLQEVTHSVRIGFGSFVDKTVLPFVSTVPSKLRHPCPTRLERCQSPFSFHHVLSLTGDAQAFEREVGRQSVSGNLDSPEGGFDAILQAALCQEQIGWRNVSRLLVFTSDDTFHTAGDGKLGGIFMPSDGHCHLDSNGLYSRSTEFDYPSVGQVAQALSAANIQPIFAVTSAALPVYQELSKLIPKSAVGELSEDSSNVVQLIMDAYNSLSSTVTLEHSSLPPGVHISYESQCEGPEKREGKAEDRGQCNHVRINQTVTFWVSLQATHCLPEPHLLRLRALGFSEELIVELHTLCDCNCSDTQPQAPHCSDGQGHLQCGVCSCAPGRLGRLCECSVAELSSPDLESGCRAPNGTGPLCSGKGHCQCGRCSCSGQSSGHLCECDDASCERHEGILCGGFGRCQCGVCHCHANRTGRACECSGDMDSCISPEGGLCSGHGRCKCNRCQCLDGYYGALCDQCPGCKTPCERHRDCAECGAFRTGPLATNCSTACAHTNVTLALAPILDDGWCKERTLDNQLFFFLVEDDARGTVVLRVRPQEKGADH
# Test: α4β7-MadCAM Competition ELISA (Example 4)
# Format: binding
# Conditions: Table 3 Representative compounds; inhibition of MAdCAM binding to coated α4β7; read-out: IC50
# Procedure: After washing with wash buffer, 200 μL assay buffer was added to each well and incubated for one hour at 28° C. After another wash with wash buffer, 100 μL of a MAdCAM and peptide mixture in assay buffer was added to each well and incubated for one hour at 28° C., followed by washing with wash buffer.
row,SMILES,IC50 [µM]
1,"CSCC[C@@H]1NC(=O)[C@@H]2CCCN2C(=O)[C@@H]2CSCc3cc(cc(c3)OCCCCCCO/N=C/C(=O)N[C@@H](CCCNC(=N)N)C(=O)N2)CSC[C@@H](C(N)=O)NC(=O)[C@H](CCC(=O)O)NC(=O)CNC(=O)[C@H](C)NC(=O)[C@H](C(C)C)NC(=O)[C@H](CC(=O)O)NC1=O [compound 23, TSL6- SRCPMDVAGEC] (RCPMDVAGEC-NH2; linker N-2-10 via X3)",0.511
2,CC[C@H](C)[C@@H]1NC(=O)[C@H](CC(=O)O)NC(=O)[C@H](CCSC)NC(=O)[C@@H]2CCCN2C(=O)[C@@H]2CSCc3cc(cc(c3)OCCCCCCO/N=C/C(=O)N[C@@H](CCCNC(=N)N)C(=O)N2)CSC[C@@H](C(N)=O)NC(=O)[C@H]([C@@H](C)O)NC(=O)[C@@H]2CCCN2C1=O [compound 20] (RCPMDIPTC-NH2; linker N-2-9 via X3),0.404
3,CC(C)C[C@@H]1NC(=O)[C@@H]2CCCN2C(=O)[C@@H](NC(=O)[C@H](CCCCN)NC(=O)[C@@H](N)CO)CSSC[C@@H](C(N)=O)NC(=O)[C@H](CO)NC(=O)[C@@H]2CCCN2C(=O)[C@H](C(C)C)NC(=O)[C@H](CC(=O)O)NC1=O [compound 41] (H-SKCPLDVPSC-NH2; disulfide 3-10),1.3
4,CCCC[C@@H]1NC(=O)[C@@H]2CCCN2C(=O)[C@@H]2CSCc3cc(cc(c3)OCCCCCCO/N=C/C(=O)N[C@@H](CCCNC(=N)N)C(=O)N2)CSC[C@@H](C(N)=O)NC(=O)[C@H](CCC(=O)O)NC(=O)[C@H](CCC(N)=O)NC(=O)[C@H](Cc2c[nH]c3ccccc23)NC(=O)[C@H](C(C)C)NC(=O)[C@H](CC(=O)O)NC1=O [compound 3] (RCP[Nle]DVWQEC-NH2; linker N-2-10 via X3),0.053
5,"CSCC[C@@H]1NC(=O)[C@@H]2CSCc3cc(cc(c3)OCCCCCCO/N=C/C(=O)NCC(=O)N2)CSC[C@@H](C(N)=O)NC(=O)[C@H](Cc2ccccc2)NC(=O)[C@H](C)NC(=O)[C@H](Cc2ccccc2)NC(=O)[C@H](CC(=O)O)NC(=O)[C@H](CC(=O)O)NC1=O [compound 82, TSL6- SGCMDDFAFC] (GCMDDFAFC-NH2; linker N-2-9 via X3)",59.1
6,"C[C@@H]1NC(=O)[C@@H]2CCCN2C(=O)[C@@H]2CSCc3cc(cc(c3)OCCCCCCO/N=C/C(=O)N[C@@H](CCCCN)C(=O)N2)CSC[C@@H](C(N)=O)NC(=O)[C@H](CCC(=O)O)NC(=O)[C@H](Cc2ccc(O)cc2)NC(=O)[C@@H]2CCCN2C(=O)[C@H]([C@@H](C)O)NC(=O)[C@H](CC(=O)O)NC1=O [compound 109, TSL- 6SKCPADTPYEC] (KCPADTPYEC-NH2; linker N-2-10 via X3)",> 500
7,"CC[C@H](C)[C@@H]1NC(=O)[C@H]([C@@H](C)O)NC(=O)[C@H](CC(=O)O)NC(=O)[C@H](CO)NC(=O)[C@H](CCCNC(=N)N)NC(=O)[C@@H]2CSCc3cc(cc(c3)OCCCCCCO/N=C/C(=O)N[C@@H](C)C(=O)N2)CSC[C@@H](C(N)=O)NC1=O [compound 90, TSL6- SACRSDTLC] (ACRSDTIC-NH2; linker N-2-8 via X3)",79.8
8,"CC[C@H](C)[C@@H]1NC(=O)[C@H](CC(=O)O)NC(=O)[C@H](CCSC)NC(=O)[C@@H]2CCCN2C(=O)[C@@H]2CSCc3cc(cc(c3)OCCCCCCO/N=C/C(=O)N[C@@H](C)C(=O)N2)CSC[C@@H](C(N)=O)NC(=O)[C@H]([C@@H](C)O)NC(=O)[C@@H]2CCCN2C1=O [compound 37, TSL6- SACPMDIPTC] (ACPMDIPTC-NH2; linker N-2-9 via X3)",0.943
9,"CSCC[C@@H]1NC(=O)[C@@H]2CCCN2C(=O)[C@@H]2CSCc3cc(cc(c3)OCCCCCCO/N=C/C(=O)N[C@@H](C)C(=O)N2)CSC[C@@H](C(N)=O)NC(=O)[C@H](CCC(=O)O)NC(=O)[C@H](CCC(N)=O)NC(=O)[C@H](Cc2c[nH]c3ccccc23)NC(=O)[C@H](C(C)C)NC(=O)[C@H](CC(=O)O)NC1=O [compound 62, TSL6- SDCHDPPKVC] (ACPMDVWQEC-NH2; linker N-2-10 via X3)",6.42
10,"CC[C@H](C)[C@@H]1NC(=O)[C@H](Cc2ccc(O)cc2)NC(=O)[C@H](CC(C)C)NC(=O)[C@@H]2CCCN2C(=O)[C@@H]2CSCc3cc(cc(c3)OCCCCCCO/N=C/C(=O)N[C@@H](CCSC)C(=O)N2)CSC[C@@H](C(N)=O)NC(=O)[C@H](Cc2cnc[nH]2)NC(=O)[C@H](C(C)C)NC1=O [compound 72, TSL6- SMCPLYIVHC] (MCPLYIVHC-NH2; linker N-2-9 via X3)",29.4
11,"CC[C@H](C)[C@@H]1NC(=O)[C@H](CC(=O)O)NC(=O)[C@H](CC(C)C)NC(=O)[C@@H]2CSCc3cc(cc(c3)OCCCCCCO/N=C/C(=O)N[C@@H](CCCNC(=N)N)C(=O)N2)CSC[C@@H](C(N)=O)NC(=O)[C@H](CC(=O)O)NC(=O)[C@H](Cc2ccc(O)cc2)NC(=O)[C@H]([C@@H](C)O)NC1=O [compound 92, TSL6- SRCLDIMYDC] (RCLDITYDC-NH2; linker N-2-9 via X3)",100

# Same assay, conditions: competition ELISA, 4 μg/mL α4β7 coated, MAdCAM and peptide mixture, 28° C.; read-out: IC50
row,SMILES,IC50 [µM]
1,N=C(N)NCCC[C@@H]1NC(=O)CNC(=O)[C@H](Cc2ccc(O)cc2)NC(=O)[C@H](Cc2c[nH]c3ccccc23)NC(=O)[C@H](Cc2c[nH]cn2)NC(=O)[C@@H]2CSCc3cc(cc(c3)OCCCCCCON=CC(=O)N[C@@H](CCC(N)=O)C(=O)N2)CSC[C@@H](C(=O)O)NC(=O)[C@H](CO)NC1=O [SEQ ID NO: 19] (QCHWYGRSC-OH; linker N-2-9 via X1),> 500
2,CC(C)(C)C[C@@H]1NC(=O)[C@H](CC(=O)O)NC(=O)[C@H](CC2CCC2)NC(=O)[C@@H]2CCCN2C(=O)[C@@H]2CSCc3cc(cc(c3)OCCCCCCON=CC(=O)N[C@@H](CCCNC(=N)N)C(=O)N2)CSC[C@@H](C(=O)O)NC(=O)[C@H](CCC(=O)O)NC(=O)[C@H](CCC(N)=O)NC(=O)[C@H](Cc2c[nH]c3ccccc23)NC1=O [SEQ ID NO: 105] (RCP[Cba]D[tBuAla]WQEC-OH; linker N-2-10 via X1),3.89
3,CCCC[C@@H]1NC(=O)[C@H](CO)NC(=O)[C@@H]2CSSC[C@@H](C(=O)N[C@@H](Cc3c[nH]c4ccccc34)C(=O)N[C@@H](CCC(N)=O)C(N)=O)NC(=O)[C@H](C(C)C)NC(=O)[C@H](CC(=O)O)NC(=O)[C@H](CC(C)C)NC(=O)[C@H](CO)NC(=O)[C@H](CCCNC(=N)N)NC(=O)[C@H](CSCC(=O)N[C@@H](CCCNC(=N)N)C(=O)N2)NC(=O)[C@H]([C@@H](C)CC)NC(=O)[C@H](CC(=O)O)NC1=O [SEQ ID NO: 94] ({CH2CO}-RCS[Nle]DICRSLDVCWQ-NH2; disulfide 2-13; thioether N-7),19.7
4,CC[C@H](C)[C@@H]1NC(=O)[C@H](CC(=O)O)NC(=O)[C@H](CCSC)NC(=O)[C@@H]2CCCN2C(=O)[C@@H](NC(=O)[C@H](CCC(N)=O)NC(=O)[C@H](CO)NC(C)=O)CSSC[C@@H](C(=O)O)NC(=O)[C@H]([C@@H](C)O)NC(=O)[C@@H]2CCCN2C1=O [SEQ ID NO: 111] (Ac-SQCPMDIPTC-OH; disulfide 3-10),1.7
5,CC(C)C[C@@H]1NC(=O)[C@H](Cc2ccccc2)NC(=O)[C@@H]2CSCc3cc(cc(c3)OCCCCCCON=CC(=O)N[C@@H]([C@@H](C)O)C(=O)N2)CSC[C@@H](C(=O)O)NC(=O)[C@H](CC(N)=O)NC(=O)[C@H](CCCCN)NC(=O)[C@H](C(C)C)NC(=O)[C@H](CC(=O)O)NC1=O [SEQ ID NO: 10] (TCFLDVKNC-OH; linker N-2-9 via X1),311
6,CC(C)C[C@@H]1NC(=O)[C@@H]2CCCN2C(=O)[C@@H]2CSCc3cc(cc(c3)OCCCCCCON=CC(=O)N[C@@H](CCCCN)C(=O)N2)CSC[C@@H](C(=O)O)NC(=O)[C@H](CCC(=O)O)NC(=O)[C@H](Cc2ccc(O)cc2)NC(=O)[C@@H]2CCCN2C(=O)[C@H](CC(C)C)NC(=O)[C@H](CC(=O)O)NC1=O [SEQ ID NO: 134] (KCPLDLPYEC-OH; linker N-2-10 via X1),0.363
